The NIST ThermoML archive (doi:10.1021/je900164a)
± gives the expanded uncertainty stated by the source.

Test: xn = mol fraction of the nth substance listed
Conditions: 101 kPa, Liquid, Vibrating tube method

CNC(=O)NC [1,3-dimethylurea] + O
mass density [kg/m3]
Conditions	280.15 K	281.15 K	282.15 K	283.15 K	288.15 K	298.15 K	308.15 K
x1 = 0.000898	–	1000.29 ± 0.04	1000.22 ± 0.04	1000.13 ± 0.04	999.526 ± 0.041	997.452 ± 0.043	994.42 ± 0.045
x1 = 0.0018	–	1000.73 ± 0.041	1000.65 ± 0.041	1000.57 ± 0.041	999.93 ± 0.041	997.853 ± 0.043	994.802 ± 0.045
x1 = 0.00448	–	1002.06 ± 0.042	1001.98 ± 0.042	1001.88 ± 0.041	1001.23 ± 0.042	999.058 ± 0.042	995.947 ± 0.045
x1 = 0.00893	–	1004.34 ± 0.043	1004.22 ± 0.043	1004.12 ± 0.043	1003.35 ± 0.044	1001.08 ± 0.043	997.861 ± 0.044
x1 = 0.01771	–	1008.91 ± 0.048	1008.75 ± 0.048	1008.6 ± 0.048	1007.67 ± 0.048	1005.1 ± 0.048	1001.7 ± 0.047
x1 = 0.02461	–	1012.56 ± 0.053	1012.36 ± 0.053	1012.17 ± 0.053	1011.04 ± 0.053	1008.24 ± 0.052	1004.63 ± 0.051
x1 = 0.03141	–	1016 ± 0.058	1015.77 ± 0.058	1015.58 ± 0.058	1014.35 ± 0.058	1011.28 ± 0.057	1007.43 ± 0.055
x1 = 0.03815	–	1019.47 ± 0.064	1019.19 ± 0.064	1019.01 ± 0.064	1017.55 ± 0.063	1014.24 ± 0.062	1010.16 ± 0.06
x1 = 0.04471	1023.02 ± 0.07	1022.79 ± 0.07	1022.47 ± 0.07	1022.23 ± 0.07	1020.59 ± 0.069	1017.04 ± 0.068	1012.76 ± 0.066
x1 = 0.05126	1026.26 ± 0.077	1025.97 ± 0.077	1025.61 ± 0.077	1025.27 ± 0.077	1023.54 ± 0.076	1019.75 ± 0.074	1015.27 ± 0.072
x1 = 0.06722	1033.52 ± 0.095	1033.21 ± 0.095	1032.76 ± 0.095	1032.44 ± 0.096	1030.34 ± 0.093	1025.98 ± 0.091	1021.16 ± 0.088
x1 = 0.08246	1040.01 ± 0.12	1039.61 ± 0.12	1039.05 ± 0.12	1038.58 ± 0.12	1036.44 ± 0.11	1031.41 ± 0.11	1026.06 ± 0.11
x1 = 0.09755	1045.78 ± 0.14	1045.39 ± 0.14	1044.75 ± 0.14	1044.35 ± 0.14	1041.6 ± 0.14	1036.31 ± 0.13	1030.33 ± 0.13
